Laboratory results published in patent publication EP1561465A2, “Methods of use of fluoroquinolone compounds against bacteria” (LG Life Sciences, Ltd., priority 1999, dated 2001).
≈ marks a conversion by molar mass, not a printed value. Like-named read-outs stand apart in the source and are kept apart here.

Tests used:
Type in all cases: cell-based
[1] = test system: Streptococcus pneumoniae; assay: MIC by agar dilution (NCCLS), 411 isolates Buenos Aires 1998-99; conditions: Streptococcus pneumoniae, S. pneumoniae, read-out: MIC90
[2] = test system: Streptococcus pneumoniae; assay: MIC by NCCLS reference broth microdilution, 450 respiratory tract pathogens; conditions: for MIC50 / MIC90 / MIC: Streptococcus pneumoniae
[3] = test system: Streptococcus pyogenes; assay: as above; conditions: Streptococcus pyogenes
[4] = test system: Haemophilus influenzae; assay: as above; conditions: Haemophilus influenzae; for MIC90: read-out: MIC90
[5] = test system: Moraxella catarrhalis; assay: as above
[6] = test system: Staphylococcus aureus; assay: as above
[7] = test system: Klebsiella pneumoniae; assay: as above; conditions: Klebsiella pneumoniae
[8] = Streptococcus pneumoniae (n = 100)
[9] = erythromycin resistant M phenotype (n = 16)
[10] = erythromycin resistant MLSB phenotype (n = 16)
[11] = penicillin intermediate (n = 16)
[12] = penicillin susceptible (n = 20)
[13] = Streptococcus pyogenes (n = 100)
[14] = erythromycin resistant C phenotype [MLSB] (n = 20)
[15] = erythromycin resistant I phenotype [MLSB] (n = 20)
[16] = erythromycin resistant M phenotype (n = 20)
[17] = Haemophilus influenzae (n = 100)
[18] = β-lactamase positive and erythromycin resistant (n = 10)
[19] = extended spectrum β-lactamase positive (n = 20)

**Q.** Which results are given for `CO/N=C(\C(=O)N[C@@H]1C(=O)N2C(C(=O)O)=C(COC(N)=O)CS[C@H]12)c1ccco1` [Cefuroxime, cefuroxime]?
**A.** MIC90 ([1]; Penicillin intermediate (n = 17)): 4 µg/mL (≈ 9.43 µM); MIC90 ([1]; Penicillin resistant (n = 4)): 4 µg/mL (≈ 9.43 µM); MIC90 ([1]; Penicillin susceptible (n = 69)): 0.03 µg/mL (≈ 0.0707 µM); MIC Range [2, 8]: ≤0.0075 to 8 µg/mL; MIC50 [2, 8]: 0.03 µg/mL (≈ 0.0707 µM); MIC90 [2, 8]: 2 µg/mL (≈ 4.71 µM); MIC [2, 9]: 0.0075 to 0.12 µg/mL (≈ 0.0177 to 0.283 µM); MIC50 [2, 9]: 0.015 µg/mL (≈ 0.0353 µM); MIC90 [2, 9]: 0.12 µg/mL (≈ 0.283 µM); MIC [2, 10]: 0.015 to 0.5 µg/mL (≈ 0.0353 to 1.18 µM); MIC50 [2, 10]: 0.015 µg/mL (≈ 0.0353 µM); MIC90 [2, 10]: 0.03 µg/mL (≈ 0.0707 µM); MIC ([2]; multi-drug resistant (n = 16)): 0.015 to 0.25 µg/mL (≈ 0.0353 to 0.589 µM); MIC50 ([2]; multi-drug resistant (n = 16)): 0.03 µg/mL (≈ 0.0707 µM); MIC90 ([2]; multi-drug resistant (n = 16)): 0.03 µg/mL (≈ 0.0707 µM); MIC [2, 11]: 0.12 to 8 µg/mL (≈ 0.283 to 18.9 µM); MIC50 [2, 11]: 2 µg/mL (≈ 4.71 µM); MIC90 [2, 11]: 2 µg/mL (≈ 4.71 µM); MIC ([2]; penicillin resistant (n = 18)): 2 to 8 µg/mL (≈ 4.71 to 18.9 µM); MIC50 ([2]; penicillin resistant (n = 18)): 2 µg/mL (≈ 4.71 µM); MIC90 ([2]; penicillin resistant (n = 18)): 8 µg/mL (≈ 18.9 µM); MIC [2, 12]: 0.0075 to 0.015 µg/mL (≈ 0.0177 to 0.0353 µM); MIC50 [2, 12]: 0.015 µg/mL (≈ 0.0353 µM); MIC90 [2, 12]: 0.015 µg/mL (≈ 0.0353 µM); MIC [3, 13]: 0.00375 to 0.015 µg/mL (≈ 0.00884 to 0.0353 µM); MIC50 [3, 13]: 0.0075 µg/mL (≈ 0.0177 µM); MIC90 [3, 13]: 0.015 µg/mL (≈ 0.0353 µM); MIC [3, 14]: 0.00375 to 0.015 µg/mL (≈ 0.00884 to 0.0353 µM); MIC50 [3, 14]: ≤ 0.00375 µg/mL; MIC90 [3, 14]: 0.015 µg/mL (≈ 0.0353 µM); MIC [3, 15]: 0.00375 to 0.01 µg/mL (≈ 0.00884 to 0.0236 µM); MIC50 [3, 15]: ≤ 0.00375 µg/mL; MIC90 [3, 15]: 0.015 µg/mL (≈ 0.0353 µM); MIC [3, 16]: 0.00375 to 0.015 µg/mL (≈ 0.00884 to 0.0353 µM); MIC50 [3, 16]: ≤ 0.00375 µg/mL; MIC90 [3, 16]: 0.015 µg/mL (≈ 0.0353 µM); MIC ([3]; fully susceptible (n = 20)): 0.0075 to 0.015 µg/mL (≈ 0.0177 to 0.0353 µM); MIC50 ([3]; fully susceptible (n = 20)): 0.0075 µg/mL (≈ 0.0177 µM); MIC90 ([3]; fully susceptible (n = 20)): 0.015 µg/mL (≈ 0.0353 µM); MIC ([3]; multi-drug resistant (n = 20)): 0.0075 to 0.015 µg/mL (≈ 0.0177 to 0.0353 µM); MIC90 ([3]; multi-drug resistant (n = 20)): 0.015 µg/mL (≈ 0.0353 µM); MIC [4, 17]: 0.12 to 4 µg/mL (≈ 0.283 to 9.43 µM); MIC50 [4, 17]: 0.5 µg/mL (≈ 1.18 µM); MIC90 [4, 17]: 1 µg/mL (≈ 2.36 µM); MIC ([4]; β-lactamase negative (n = 80)): 0.25 to 1 µg/mL (≈ 0.589 to 2.36 µM); MIC50 ([4]; β-lactamase negative (n = 80)): 0.5 µg/mL (≈ 1.18 µM); MIC90 ([4]; β-lactamase negative (n = 80)): 1 µg/mL (≈ 2.36 µM); MIC ([4]; β-lactamase positive (n = 20)): 0.12 to 4 µg/mL (≈ 0.283 to 9.43 µM); MIC50 ([4]; β-lactamase positive (n = 20)): 0.5 µg/mL (≈ 1.18 µM); MIC90 ([4]; β-lactamase positive (n = 20)): 1 µg/mL (≈ 2.36 µM); MIC ([5]; Moraxella catarrhalis (n = 50)): 0.00375 to 1 µg/mL (≈ 0.00884 to 2.36 µM); MIC50 ([5]; Moraxella catarrhalis (n = 50)): 0.25 µg/mL (≈ 0.589 µM); MIC90 ([5]; Moraxella catarrhalis (n = 50)): 1 µg/mL (≈ 2.36 µM); MIC ([5]; β-lactamase negative (n = 13)): 0.00375 to 1 µg/mL (≈ 0.00884 to 2.36 µM); MIC50 ([5]; β-lactamase negative (n = 13)): 0.12 µg/mL (≈ 0.283 µM); MIC90 ([5]; β-lactamase negative (n = 13)): 0.5 µg/mL (≈ 1.18 µM); MIC ([5]; β-lactamase positive (n = 37)): 0.00375 to 1 µg/mL (≈ 0.00884 to 2.36 µM); MIC50 ([5]; β-lactamase positive (n = 37)): 0.25 µg/mL (≈ 0.589 µM); MIC90 ([5]; β-lactamase positive (n = 37)): 1 µg/mL (≈ 2.36 µM); MIC ([6]; Staphylococcus aureus (n = 50)): 0.00375 to 0.25 µg/mL (≈ 0.00884 to 0.589 µM); MIC50 ([6]; Staphylococcus aureus (n = 50)): 0.25 µg/mL (≈ 0.589 µM); MIC90 ([6]; Staphylococcus aureus (n = 50)): 0.25 µg/mL (≈ 0.589 µM); MIC ([6]; β-lactamase negative (n = 20)): 0.0075 to 0.25 µg/mL (≈ 0.0177 to 0.589 µM); MIC50 ([6]; β-lactamase negative (n = 20)): 0.25 µg/mL (≈ 0.589 µM); MIC90 ([6]; β-lactamase negative (n = 20)): 0.25 µg/mL (≈ 0.589 µM); MIC ([6]; β-lactamase positive (n = 20)): 0.06 to 0.25 µg/mL (≈ 0.141 to 0.589 µM); MIC50 ([6]; β-lactamase positive (n = 20)): 0.25 µg/mL (≈ 0.589 µM); MIC90 ([6]; β-lactamase positive (n = 20)): 0.25 µg/mL (≈ 0.589 µM); MIC [6, 18]: 0.06 to 0.25 µg/mL (≈ 0.141 to 0.589 µM); MIC50 [6, 18]: 0.12 µg/mL (≈ 0.283 µM); MIC90 [6, 18]: 0.25 µg/mL (≈ 0.589 µM); MIC50 ([7]; Klebsiella pneumoniae (n = 50)): 2 µg/mL (≈ 4.71 µM); MIC90 ([7]; Klebsiella pneumoniae (n = 50)): 128 µg/mL (≈ 302 µM); MIC50 [7, 19]: 128 µg/mL (≈ 302 µM); MIC90 [7, 19]: > 128 µg/mL
